From ChEMBL document CHEMBL1128149, “Molecular design of novel PGI2 agonists without PG skeleton. IV” (Bioorg Med Chem Lett, 1995)

Columns and labels:
[1] = species: Homo sapiens; test: Compound was tested for its inhibitory activity against 4 uM ADP-induced platelet aggregation of human platelet rich plasma; format: functional
[2] = target: Prostacyclin receptor (Homo sapiens, UniProt P43119); test: Compound was tested for its binding affinity against Prostaglandin I2 receptor using conventional ligand assay by the displacement of [3H]-iloprost from human platelets
Prostacyclin receptor, sequence (P43119 whole entry): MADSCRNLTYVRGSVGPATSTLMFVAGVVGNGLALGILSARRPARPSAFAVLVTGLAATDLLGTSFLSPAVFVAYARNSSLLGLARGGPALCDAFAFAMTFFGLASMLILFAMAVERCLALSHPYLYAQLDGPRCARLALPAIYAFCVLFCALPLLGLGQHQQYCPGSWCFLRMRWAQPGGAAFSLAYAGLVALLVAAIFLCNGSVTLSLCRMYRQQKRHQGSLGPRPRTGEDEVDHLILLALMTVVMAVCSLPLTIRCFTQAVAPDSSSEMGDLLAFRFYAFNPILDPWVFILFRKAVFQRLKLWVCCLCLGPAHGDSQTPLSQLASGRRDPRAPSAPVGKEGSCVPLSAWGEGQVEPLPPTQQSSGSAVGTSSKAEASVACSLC

SMILES | IC50 [1] [nM] | IC50 [2] [nM] | IC50 ([1]; Homo sapiens, Plasma) [nM]
O=C(O)COc1cccc2c1CCC(Cc1coc(C(c3ccccc3)c3ccccc3)n1)C2 (stereo not drawn) | 1000 |  | 
O=C(O)COc1cccc2c1CCCC2CCn1cc(C(c2ccccc2)c2ccccc2)cn1 (stereo not drawn) |  | 18 | 93
O=C(O)COc1cccc2c1CCC=C2CCn1cc(C(c2ccccc2)c2ccccc2)cn1 |  | 2000 | 8600
O=C(O)COc1cccc2c1CCC(CC1C=NC(C(c3ccccc3)c3ccccc3)=N1)C2 (stereo not drawn) |  |  | 12000
O=C(O)COc1cccc2c1CCC(CC1=NC(C(c3ccccc3)c3ccccc3)=NC1)C2 (stereo not drawn) | 1000 |  | 
O=C(O)COc1cccc2c1CCC(Cn1cc(C(c3ccccc3)c3ccccc3)cn1)=C2 |  | 8 | 26

Now from value to compound:

IC50 [1] [nM] | IC50 [2] [nM] | IC50 ([1]; Homo sapiens, Plasma) [nM] | SMILES
530 | 40 |  | O=C(O)COc1cccc2c1CCC(Cn1cc(C(c3ccccc3)c3ccccc3)cn1)C2 (stereo not drawn)
 |  | 670 | O=C(O)COc1cccc2c1CCC(Cn1cnc(C(c3ccccc3)c3ccccc3)c1)C2 (stereo not drawn)
5100 |  |  | O=C(O)COc1cccc2c1CCC(Cc1nc(C(c3ccccc3)c3ccccc3)co1)C2 (stereo not drawn)
